Measurements: patent EP0966464B1, “SUBSTITUTED 2,4-DIAMINOPYRIMIDINES” (priority 1997, dated 1998)

Columns and labels:
Experiment in all cases: Inhibition of purified bacterial dihydrofolate reductase (method of Baccanari and Joyner)
Assay type in all cases: biochemical
[1] = target: purified DHFR of the reference strain S. aureus ATCC 25923 (Staphylococcus aureus, UniProt P0A017)
Description: (§1) The inhibition of this enzyme was taken as a measurement of the antibacterial activity.

[2] = target: T1, purified DHFR of the multiresistant strain Streptococcus pneumoniae 1/1 (Streptococcus pneumoniae serotype 4, UniProt Q54801); conditions: read-out: IC50 values S.pneumoniae 1/1, IC50 determined by means of a graph
T1 sequence (Q54801 1-168): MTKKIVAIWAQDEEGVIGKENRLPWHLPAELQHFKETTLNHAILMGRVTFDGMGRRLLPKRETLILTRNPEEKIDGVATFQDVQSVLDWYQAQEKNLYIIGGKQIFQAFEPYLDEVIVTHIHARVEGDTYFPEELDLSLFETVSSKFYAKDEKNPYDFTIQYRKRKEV
Description: as §1

[3] = target: purified DHFR of the multiresistant strain S. aureus 157/4696 (Staphylococcus aureus, UniProt P0A017); conditions: read-out: IC50 values S.aureus 157/4696, IC50 determined by means of a graph
Description: as §1

SMILES | IC50 [1] [nM] | IC50 [2] [nM] | IC50 [3] [nM]
COc1cc(Cc2cnc(N)nc2N)cc(/C=C/C(=O)N2N=Cc3ccccc3C2c2ccccc2)c1OC (racemic) [A, (E)-(RS)-3-[5-(2,4-Diamino-pyrimidin-5-ylmethyl)-2,3-dimethoxyphenyl]-1-(1-phenyl-1H-phthalazin-2-yl)-propenone] | 2 | 12 | 2
COc1cc(Cc2cnc(N)nc2N)cc(/C=C/C(=O)N2N=Cc3ccccc3C2c2ccco2)c1OC (racemic) [B, (E)-(RS)-3-[5-(2,4-Diamino-pyrimidin-5-ylmethyl)-2,3-dimethoxyphenyl]-1-(1-furan-2-yl-1H-phthalazin-2-yl)-propenone] | 2 | 22 | 8
COc1cc(Cc2cnc(N)nc2N)cc(/C=C/C(=O)N2N=Cc3ccccc3C2c2ccc(CO)cc2)c1OC (racemic) [C, (E)-(RS)-3-[5-(2,4-Diamino-pyrimidin-5-ylmethyl)-2,3-dimethoxyphenyl]-1-[1-(4-hydroxymethyl-phenyl)-1H-phthalazin-2-yl]-propenone] | 1 | 2 | 1
COc1cc(Cc2cnc(N)nc2N)cc(/C=C/C(=O)N2N=Cc3ccccc3C2c2ccc(O)cc2)c1OC (racemic) [D, (E)-(RS)-3-[5-(2,4-Diamino-pyrimidin-5-ylmethyl)-2,3-dimethoxyphenyl]-1-[1-(4-hydroxy-phenyl)-1H-phthalazin-2-yl]-propenone] | 2 | 9 | 3
CCC1c2ccccc2C=NN1C(=O)/C=C/c1cc(Cc2cnc(N)nc2N)cc(OC)c1OC (racemic) [E, (E)-(RS)-3-[5-(2,4-Diamino-pyrimidin-5-ylmethyl)-2,3-dimethoxyphenyl]-1-(1-ethyl-1H-phthalazin-2-yl)-propenone] | 2 | 18 | 12
COc1cc(Cc2cnc(N)nc2N)cc(/C=C/C(=O)N2N=Cc3ccccc3C2CCCCO)c1OC (racemic) [F, (E)-(RS)-3-[5-(2,4-Diamino-pyrimidin-5-ylmethyl)-2,3-dimethoxyphenyl]-1-[1-(4-hydroxy-butyl)-1H-phthalazin-2-yl]-propenone] | 1 | 9 | 3
CCCC1c2ccccc2C=NN1C(=O)/C=C/c1cc(Cc2cnc(N)nc2N)cc(OC)c1OC (racemic) [G, (E)-(RS)-3-{5-(2,4-Diamino-pyrimidin-5-ylmethyl)-2,3-dimethoxyphenyl}-1-(1-propyl-1H-phthalazin-2-yl)-propenone] | 2 | 5 | 6
COc1cc(Cc2cnc(N)nc2N)cc(/C=C/C(=O)N2N=Cc3ccccc3C2c2ccc(C)nc2)c1OC (racemic) [I, (E)-(RS)-3-[5-(2,4-Diamino-pyrimidin-5-ylmethyl)-2,3-dimethoxyphenyl)-1-[1-(6-methyl-pyridin-3-yl)-1H-phthalazin-2-yl]-propenone] | 0.4 | 0.4 | 0.4
CCc1ccc(C2c3ccccc3C=NN2C(=O)/C=C/c2cc(Cc3cnc(N)nc3N)cc(OC)c2OC)cn1 (racemic) [J, (E)-(RS)-3-[5-(2,4-Diamino-pyrimidin-5-ylmethyl)-2,3-dimethoxyphenyl]-1-[1-(6-ethyl-pyridin-3-yl)-1H-phthalazin-2-yl]-propenone] | 0.3 | 1.5 | 0.2
COc1cc(Cc2cnc(N)nc2N)cc(/C=C/C(=O)N2N=Cc3ccccc3C2c2cnc(C)nc2)c1OC (racemic) [K, (E)-(RS)-3-[5-(2,4-Diamino-pyrimidin-5-ylmethyl)-2,3-dimethoxyphenyl]-1-[1-(2-methyl-pyrimidin-5-yl)-1H-phthalazin-2-yl]-propenone] | 0.6 | 2.5 | 0.6
COc1cc(Cc2cnc(N)nc2N)cc(/C=C/C(=O)N2N=Cc3ccccc3[C@@H]2c2ccc(C)nc2)c1OC [H, (E)-(R)-3-[5-(2,4-Diamino-pyrimidin-5-ylmethyl)-2,3-dimethoxy-phenyl]-1-[1-(6-methyl-pyridin-3-yl)-1H-phthalazin-2-yl]-propenone] | 0.3 | 1.2 | 0.4
